ChEMBL document CHEMBL1146222, “Cyclic depsipeptides, ichthyopeptins A and B, from Microcystis ichthyoblabe” (J Nat Prod, 2007)
≈ marks a conversion by molar mass, not a printed value.

System: Influenza A virus
Test: Antiviral activity against Influenza A virus (A/WSN/33/London (H1N1)) in MDCK cells after 72 hrs by neutral red dye uptake assy
Format: functional, organism-based

`NC12CC3CC(CC(C3)C1)C2` [AMANTADINE] gave an IC50 of 15 µg/mL (≈ 99.2 µM).
